The text below walks through data of patent publication US12622892B2, “Methods for treating endometriosis” (THE TEXAS A&M UNIVERSITY SYSTEM, priority 2020, dated 2026).

The subject of one experiment is NESC and EESC cells. Conditions: Zeng et al. 2018; cited from earlier work.
The target in a further experiment is T1, GAL4-NR4A1 (Homo sapiens, UniProt P22736).
T1 construct: GAL4 (fusion partner); expressed in transfected cells; host or cells: ESECT-7 patient-derived endometriotic cells
The experiment in a line: Luciferase assay, GAL4-NR4A1 chimera/UAS-luc in ESECT-7 cells. In kind it is cell-based. The conditions noted are these: ESECT-7 cells transfected with GAL4-NR4A1 chimera/UAS-luc; 18 hr treatment; FIG. 2A. The procedure: (§1) Luciferase assay: ESECT-7 and ESECT-40 cells were plated on 12-well plates in DMEM/F12 supplemented with 2.5% charcoal-stripped FBS. After overnight attachment and growth, various amounts of DNA [i.e., UASx5-Luc (500 ng), GAL4-NR4A1 (50 ng), NBREx3-Luc (800 ng), NurREx3-Luc (800 ng) and Flag-NR4A1 (80 ng)] were co-transfected into each well using Lipofectamine 2000 reagent (Invitrogen, Carlsbad, CA) according to the manufacturer's protocol. After 6 hr of transfection, cells were treated with plating medium (as above) containing either solvent (DMSO) or indicated concentrations of the compound for 18 hr. Cells were then lysed and cell extracts were used for chemiluminescence quantification of luciferase activity. Luciferase activity values were normalized against corresponding protein concentration values determined by Bradford assay. Both GAL4- and Flag-NR4A1 constructs contain full-length NR4A1 coding sequence and all the plasmids used in this study were previously described.

Experiment [1] addresses T2, NR4A1 (Homo sapiens, UniProt P22736).
T2 construct: expressed in transfected cells; host or cells: ESECT-7 patient-derived endometriotic cells
As to the kind of experiment: Luciferase assay, NR4A1/NBRE-luc in ESECT-7 cells. In kind it is cell-based. Conditions: ESECT-7 cells transfected with NR4A1/NBRE-luc; 18 hr treatment; FIG. 2A. The procedure:
as §1

In experiment [2] the test system is ESECT-7 cells. As to the kind of experiment: α-SMA immunofluorescence, ESECT-7. In kind it is cell-based, human. The conditions noted are these: vs control, FIG. 5A. The procedure:
Immunofluorescence: ESECT-7 and ESECT-40 cells were seeded in Nunc chambered cover-glass followed by various drug treatments. The cells were fixed with 4% paraformaldehyde in PBS for 20 minutes at 37° C. Cells were then blocked and incubated overnight with primary α-SMA antibody in the buffer (5% bovine serum albumin in PBS) at 4° C., followed by incubation with Alexa Fluor conjugated secondary antibody at a dilution of 1:250 for 2 hours at room temperature. Finally, cells were observed using a Zeiss confocal fluorescence microscope.

In experiment [3] the test system is NEM cells. As to the kind of experiment: Western blotting of growth promoting and proapoptotic gene products, NEM cells. In kind it is cell-based, human. In general terms: In western blotting, separated proteins are transferred to a membrane and probed.
The next experiment deals with IHEECs. The experiment in a line: Expression of fibrosis markers in IHEECs. In kind it is cell-based, human. The conditions noted are these: 24 hours, vs control, FIG. 6B.
Experiment [4] has as its system NEM cells. The experiment in a line: Annexin V staining, NEM cells. In kind it is cell-based, human. The conditions noted are these: 25 μM DIM-C-pPhOH, 10 μM DIM-C-pPhOH-3-Cl-5-OCH3, vs DMSO control, FIG. 4C.
For experiment [5], the system named is ESECT-7 cells. The experiment in a line: Annexin V staining, ESECT-7. In kind it is cell-based, human. The conditions noted are these: 10 μM DIM-C-pPhOH-3-Cl-5-OCH3, 25 μM DIM-C-pPhOH, FIG. 3A. The procedure: (§2) Annexin V staining: ESECT-7 and ESECT-40 cells were seeded in Nunc chambered cover glass followed by various drug treatments. The cells were then washed with ice-cold PBS, and 5 μL Alexa Fluor® 488 Annexin V with 100 μg/mL PI (as per the manufacturer's instructions) were added to the cells and incubated for 15 min, and the cells were observed using a Zeiss confocal fluorescence microscope.

The test system of experiment [6] is ESECT-7 cells. As to the kind of experiment: Cell proliferation assay (MTT), ESECT-7. In kind it is cell-based, human. Conditions: 24 hr; 5-10 μM DIM-C-pPhOH-3-Cl-5-OCH3, 15-25 μM DIM-C-pPhOH; FIG. 2C. The procedure:
(§3) Primary human endometriotic stromal cells from endometriosis patients: Ovarian endometrioma were isolated from endometriosis patients in the proliferative phase following the IRB-approved protocol. Isolated ectopic lesions were digested with collagenase type 3 (300 μg/ml) and DNaseI (40 μg/ml) for 90 min at 37° C., and then tissues were filtered through 150, 100, and 40 μm sieves to isolate endometrial stromal cells. The collected endometrial stromal cells were cultured in DMEM/F12 with 10% FBS plus 1× antibiotic/antimycotic solution and then validated by flow cytometry with a CD90 antibody (a mesenchymal marker). Henceforth, we refer to the stromal cells as ectopic endometrium isolated ovarian endometrioma (ESECT). As the control, primary normal endometrial stromal cells isolated from the biopsy of the eutopic endometrium of normal women (NEM) in the proliferative phase. All cells were incubated at 37° C. in CO2 incubator in an atmosphere of humidified 5% CO2 and 95% air.
(§4) Cell proliferation assay: Patient-derived endometriotic cells ESECT-7 and ESECT-40 were seeded into a 96-well plate, and the cells were then treated for 24 hr with either DMSO or different concentrations of DIM-C-pPhOH and DIM-C-pPhOH-3-Cl-5-OCH3. […] Dimethyl sulfoxide (DMSO) was added and incubated at […] for 10 min, and absorbance was measured at 570 nm.

Experiment [7] has as its system ESECT-40 cells. The experiment in a line: Annexin V staining, ESECT-40. In kind it is cell-based, human. The conditions noted are these: 10 μM DIM-C-pPhOH-3-Cl-5-OCH3, 25 μM DIM-C-pPhOH, FIG. 3B. The procedure: as §2
In the next experiment the test system is Ishikawa cells. As to the kind of experiment: Expression of fibrosis markers in Ishikawa cells. In kind it is cell-based. Conditions: 24 hours, FIG. 6D.
For experiment [8], the system named is NEM cells. As to the kind of experiment: Cell growth, normal endometrial NEM cells. Conditions: 24 hr; 15-25 μM DIM-C-pPhOH, 5-10 μM DIM-C-pPhOH-3-Cl-5-OCH3; vs DMSO control; FIG. 4A. In kind it is cell-based, human. Here is the method:
as §3, §4

Experiment [9] deals with T3, NR4A1 (Mus musculus, UniProt P12813).
T3 construct: endogenous in cells; host or cells: C2C12 muscle cells
T3 sequence (P12813 whole entry): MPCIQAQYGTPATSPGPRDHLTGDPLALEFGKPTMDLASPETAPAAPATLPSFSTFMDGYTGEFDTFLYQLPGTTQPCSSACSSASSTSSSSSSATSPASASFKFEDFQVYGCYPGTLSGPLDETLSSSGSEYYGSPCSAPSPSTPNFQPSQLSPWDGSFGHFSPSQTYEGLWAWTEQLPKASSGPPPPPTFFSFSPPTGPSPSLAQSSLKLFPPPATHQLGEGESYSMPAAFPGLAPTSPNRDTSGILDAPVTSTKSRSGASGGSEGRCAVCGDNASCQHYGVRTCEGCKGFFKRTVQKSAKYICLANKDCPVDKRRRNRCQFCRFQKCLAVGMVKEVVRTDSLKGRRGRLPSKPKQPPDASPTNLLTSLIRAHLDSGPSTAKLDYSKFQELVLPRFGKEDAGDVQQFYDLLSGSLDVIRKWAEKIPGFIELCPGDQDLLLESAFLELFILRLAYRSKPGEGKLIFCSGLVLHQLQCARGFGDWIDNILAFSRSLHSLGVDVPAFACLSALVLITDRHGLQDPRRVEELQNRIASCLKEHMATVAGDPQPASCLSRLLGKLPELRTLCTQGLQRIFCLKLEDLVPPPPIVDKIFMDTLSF
Conditions: C2C12 muscle cells; cited from earlier work.

Experiment [10] concerns ESECT-7 cells. As to the kind of experiment: Quantitative real-time PCR of fibrosis markers, ESECT-7. In kind it is cell-based, human. Conditions: 24 hours, 20-25 μM DIM-C-pPhOH, 5-10 μM DIM-C-pPhOH-3-Cl-5-OCH3, vs DMSO control, FIG. 5C. Here is the method: Quantitative real-time PCR: Total RNA was isolated from cultured cells according to the manufacturer's instructions (Zymo Research, Irvine, CA). The concentration and purity of the RNA samples were determined using a nanodrop spectrophotometer. Total RNA was reverse transcribed using iTaq Universal SYBR Green One-Step Kit (Thermo Fisher Scientific, Grand Island, NY) using the manufacturer's protocol with the CFX384 real-time PCR System (Bio-Rad). The comparative cycle threshold method was used for relative quantitation of samples. Values for each gene were normalized to expression levels of TATA-binding protein. The sequences of the primers used for real-time PCR included the following: α-SMA, 5′-GGCCGAGATCTCACTGACTAC-3′ (sense, SEQ ID NO. 13) and 5′-TTC ATG GAT GCC AGC AGA-3′ (antisense, SEQ ID NO. 14); COL1A1, 5′-CAG CCG CTT CAC CTA CAG C-3′ (sense, SEQ ID NO. 15) and 5′-TTTTGTATTCAATCAGTGTCTTGCC-3′ (antisense, SEQ ID NO. 16); CTGF, 5′-TTGGCCCAGACCCAACTATG-3′(sense, SEQ ID NO. 17) and 5′-CAGGAGGCGTTGTCATTGGT-3′ (antisense, SEQ ID NO. 18); FN, 5′-GGG AGC CTC GAA GAG C-3′ (sense 19) and 5′-AACAAGTACAAACCAACGCA-3′ (antisense, SEQ ID NO. 20) and TATA-binding protein, 5′-GATCAGAACAACAGCCTGCC-3′ (sense, SEQ ID NO. 21) and 5′-TTCTGAATAGGCTGTGGGGT-3′ […].
(In qPCR the cycle at which signal appears reflects the starting amount.)

Experiment [11] has as its system ESECT-40 cells. As to the kind of experiment: Cell proliferation assay (MTT), ESECT-40. In kind it is cell-based, human. The conditions noted are these: 24 hr; 5-10 μM DIM-C-pPhOH-3-Cl-5-OCH3, 15-25 μM DIM-C-pPhOH; FIG. 2C. The procedure: as §3, §4

T1 sequence (P22736 with tags, fused parts or gaps): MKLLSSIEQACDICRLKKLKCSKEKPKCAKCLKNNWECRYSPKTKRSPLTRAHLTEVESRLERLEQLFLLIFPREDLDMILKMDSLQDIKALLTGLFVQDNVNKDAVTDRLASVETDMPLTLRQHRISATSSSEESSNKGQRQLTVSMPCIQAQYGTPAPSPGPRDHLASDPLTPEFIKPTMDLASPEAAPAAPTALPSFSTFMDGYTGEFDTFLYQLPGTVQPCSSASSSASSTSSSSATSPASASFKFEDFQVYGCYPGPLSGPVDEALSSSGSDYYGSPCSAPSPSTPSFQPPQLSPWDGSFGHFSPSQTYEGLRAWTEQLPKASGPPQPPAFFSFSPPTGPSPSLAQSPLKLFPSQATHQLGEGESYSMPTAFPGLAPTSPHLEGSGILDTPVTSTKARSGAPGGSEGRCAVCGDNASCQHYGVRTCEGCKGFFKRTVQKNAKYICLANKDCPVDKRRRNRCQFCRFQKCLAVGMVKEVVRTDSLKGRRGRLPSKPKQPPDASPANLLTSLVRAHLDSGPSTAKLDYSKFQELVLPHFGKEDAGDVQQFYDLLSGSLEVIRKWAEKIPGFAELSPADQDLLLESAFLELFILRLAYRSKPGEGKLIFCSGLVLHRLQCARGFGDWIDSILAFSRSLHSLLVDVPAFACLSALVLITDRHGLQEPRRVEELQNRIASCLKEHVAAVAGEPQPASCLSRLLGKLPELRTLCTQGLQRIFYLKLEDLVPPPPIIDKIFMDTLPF
T2 sequence (P22736 whole entry, species assumed): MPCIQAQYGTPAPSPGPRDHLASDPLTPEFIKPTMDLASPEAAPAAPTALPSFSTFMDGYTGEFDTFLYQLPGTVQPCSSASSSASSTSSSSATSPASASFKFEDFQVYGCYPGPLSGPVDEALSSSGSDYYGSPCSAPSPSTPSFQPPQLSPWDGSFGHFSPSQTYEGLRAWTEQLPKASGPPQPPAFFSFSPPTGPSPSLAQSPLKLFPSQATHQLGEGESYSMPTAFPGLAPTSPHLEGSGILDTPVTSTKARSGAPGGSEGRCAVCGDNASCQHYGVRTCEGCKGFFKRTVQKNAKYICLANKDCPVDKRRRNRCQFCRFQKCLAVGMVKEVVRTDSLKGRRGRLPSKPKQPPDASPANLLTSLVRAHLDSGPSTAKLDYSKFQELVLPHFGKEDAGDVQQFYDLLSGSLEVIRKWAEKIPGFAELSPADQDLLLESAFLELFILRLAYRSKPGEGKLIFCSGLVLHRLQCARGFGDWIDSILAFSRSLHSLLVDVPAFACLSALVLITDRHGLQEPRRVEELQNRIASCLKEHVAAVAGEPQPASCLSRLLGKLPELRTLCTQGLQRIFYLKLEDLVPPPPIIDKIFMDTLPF

In the case of `CCCCCCCC(=O)c1c(O)cc(O)cc1CC(=O)OCC` [cytosporone β], the TGFβ-induced fibrosis result in the experiment with NESC and EESC cells is “inhibited TGFβ-induced fibrosis”.

With `Oc1ccc(C(c2c[nH]c3ccccc23)c2c[nH]c3ccccc23)cc1Cl` [4-OH-3-Cl, 1,1-bis(3′-indolyl)-1-(3-chloro-4-hydroxyphenyl)methane], at GAL4-NR4A1, the “intrinsic transcriptional activity of GAL4-NR4A1” value is “inhibited the intrinsic transcriptional activity”. In addition, the “intrinsic transcriptional activity of NR4A1” value at NR4A1 [1] was “inhibited the intrinsic transcriptional activity”.

In the case of `Oc1ccc(C(c2c[nH]c3ccccc23)c2c[nH]c3ccccc23)cc1` [DIM-C-pPhOH, 1,1-bis(3′-indolyl)-1-(p-hydroxyphenyl)methane], the “expression of SMA levels” value with ESECT-7 cells [2] is listed as “decreased expression of SMA levels”. Moreover, the “levels of the cleaved form of PARP and Bax” value in the experiment with NEM cells [3] (25 μM DIM-C-pPhOH, 10 μM DIM-C-pPhOH-3-Cl-5-OCH3, vs DMSO control, FIG. 4D) is recorded as “did not enhance”. Further, the “cMyc and EGFR expression” value with NEM cells [3] (15-25 μM DIM-C-pPhOH, 5-10 μM DIM-C-pPhOH-3-Cl-5-OCH3, vs DMSO control, FIG. 4B) is “did not decrease”. Also, the “expression of fibrosis markers (α-SMA, COL1A1, FN, CTGF)” value in the experiment with IHEECs and in the experiment with Ishikawa cells was “decreased expression of fibrosis markers” in each case. In addition, the “Annexin V staining” value with NEM cells [4] is “did not enhance”. The “Annexin V staining (apoptosis)” value in the experiment on ESECT-7 cells [5] and in the experiment with ESECT-40 cells [7] was “induced apoptosis” in each case. The “growth of ESECT-7 cells” value in the experiment on ESECT-7 cells [6] was “inhibited cell growth”. Besides, the “intrinsic transcriptional activity of GAL4-NR4A1” value on GAL4-NR4A1 was “inhibited the intrinsic transcriptional activity”. Further, the “growth of normal endometrial NEM cells” value with NEM cells [8] is given as “did not suppress the growth”. Besides, the “NR4A1 agonist activity, induction of genes involved in glucose uptake” value on NR4A1 [9] is given as “worked as NR4A1 agonists”. In addition, the “intrinsic transcriptional activity of NR4A1” value on NR4A1 [1] is listed as “inhibited the intrinsic transcriptional activity”. In addition, the “mRNA levels of fibrosis markers (FN, Col1A1, CTGF)” value with ESECT-7 cells [10] is “decreased mRNA levels”. Further, the “growth of ESECT-40 cells” value in the experiment on ESECT-40 cells [11] is “inhibited cell growth”.

For the compound `Oc1c(Br)cc(C(c2c[nH]c3ccccc23)c2c[nH]c3ccccc23)cc1Br` [4-OH-3,5-Br2], the “intrinsic transcriptional activity of GAL4-NR4A1” value at GAL4-NR4A1 is reported as “inhibited the intrinsic transcriptional activity”. At NR4A1 [1], the “intrinsic transcriptional activity of NR4A1” value was “inhibited the intrinsic transcriptional activity”.
